According to patent US20110039721A1, “METHOD FOR PREDICTION ABOUT CARCINOGENICITY OF SUBSTANCE IN RODENT” (Chemicals Evaluation and Research Institute, priority 2007, published 2011):

What was measured:
liver = details: classification Cr+/Cr−; cited from earlier work
rodent = details: classification C+/C−; cited from earlier work
[1] = classification M+/M−; cited from earlier work
[2] = test system: mRNA expressed from the genes (A) to (D) in rat liver; assay: Behavior of genes (mRNA expression level, oligo-DNA microarray) in rat liver after 28-day oral administration; type: in vivo
Method in brief: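 Male F344 SPF rats, 5 weeks old, four per group, dosed by oral gavage once daily for 28 days with test chemical or matched-volume solvent. Liver total RNA profiled on oligo-DNA microarray. Change ≥1.5-fold or ≤1/1.5 versus vehicle counted as significant if its direction matched that seen with other carcinogens.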

C=CCc1ccc(OC)c(OC)c1 [TS086, Methyleugenol]
Liver carcinogenicity (liver): Cr+
Carcinogenicity (rodent): C+
Mutagenicity by Ames test [1]: M−
Behavior of gene caused by administration of chemical substance ([2]; Gene No. 154, Rn.185941, group (C)): −
Behavior of gene caused by administration of chemical substance ([2]; Gene No. 533, Rn.106184, group (C)): +
Behavior of gene caused by administration of chemical substance ([2]; Gene No. 725, Rn.108075, group (C)): −
Behavior of gene caused by administration of chemical substance ([2]; Gene No. 813, Rn.201760, group (C)): −
Behavior of gene caused by administration of chemical substance ([2]; Gene No. 893, Rn.164817, group (C)): −
Behavior of gene caused by administration of chemical substance ([2]; Gene No. 1119, Rn.9757, group (C)): −
Behavior of gene caused by administration of chemical substance ([2]; Gene No. 1131, Rn.144946, group (C)): −
Behavior of gene caused by administration of chemical substance ([2]; Gene No. 1163, Rn.11766, group (C)): −
Behavior of gene caused by administration of chemical substance ([2]; Gene No. 1334, Rn.120914, group (C)): −
Behavior of gene caused by administration of chemical substance ([2]; Gene No. 1494, Rn.1430, group (B)): −
Behavior of gene caused by administration of chemical substance ([2]; Gene No. 1562, Rn.14744, group (C)): −
Behavior of gene caused by administration of chemical substance ([2]; Gene No. 1741, Rn.1647, group (C)): −
Behavior of gene caused by administration of chemical substance ([2]; Gene No. 1993, Rn.18728, group (C)): −
Behavior of gene caused by administration of chemical substance ([2]; Gene No. 2026, Rn.167075, group (A)): −
Behavior of gene caused by administration of chemical substance ([2]; Gene No. 2045, Rn.19329, group (B)): −
Behavior of gene caused by administration of chemical substance ([2]; Gene No. 2203, Rn.21240, group (B)): −
Behavior of gene caused by administration of chemical substance ([2]; Gene No. 2494, Rn.23969, group (C)): −
Behavior of gene caused by administration of chemical substance ([2]; Gene No. 2546, Rn.24561, group (C)): −
Behavior of gene caused by administration of chemical substance ([2]; Gene No. 3776, Rn.43232, group (C)): −
Behavior of gene caused by administration of chemical substance ([2]; Gene No. 3929, Rn.4620, group (C)): −
Behavior of gene caused by administration of chemical substance ([2]; Gene No. 4095, Rn.119024, group (C)): −
Behavior of gene caused by administration of chemical substance ([2]; Gene No. 4218, Rn.167075, group (A)): −
Behavior of gene caused by administration of chemical substance ([2]; Gene No. 4846, Rn.144554, group (A)): +
Behavior of gene caused by administration of chemical substance ([2]; Gene No. 4973, Rn.118529, group (C)): −
Behavior of gene caused by administration of chemical substance ([2]; Gene No. 5600, Rn.9836, group (A)): +
Behavior of gene caused by administration of chemical substance ([2]; Gene No. 5634, Rn.9862, group (C)): −
Behavior of gene caused by administration of chemical substance ([2]; Gene No. 5726, Rn.9939, group (D)): −
Behavior of gene caused by administration of chemical substance ([2]; Gene No. 5878, Rn.143213, group (C)): −
Behavior of gene caused by administration of chemical substance ([2]; Gene No. 6026, Rn.167685, group (C)): −
Behavior of gene caused by administration of chemical substance ([2]; Gene No. 6182, Rn.5834, group (A)): +
Behavior of gene caused by administration of chemical substance ([2]; Gene No. 6303, Rn.123063, group (C)): −
Behavior of gene caused by administration of chemical substance ([2]; Gene No. 6620, Rn.120914, group (C)): −
Behavior of gene caused by administration of chemical substance ([2]; Gene No. 6742, Rn.9779, group (C)): −
